Experimental data taken from ChEMBL document CHEMBL2406949, “Novel chlorinated dibenzofurans isolated from the cellular slime mold, Polysphondylium filamentosum, and their biological activities” (Bioorg Med Chem, 2013).
Activity calls are given as the source filed them. The rule behind the calls is not given here.

Legend:
[1] = Cytotoxicity against Drosophila melanogaster S2 cells assessed as cell viability up to 1 uM; type: cell-based
HeLa = test: Growth inhibition of human HeLa cells at 5 uM after 3 days by Alamar blue assay; type: functional, cell-based
Dictyostelium discoideum [2] = test: Induction of stalk cell differentiation in Dictyostelium discoideum HM44 after 2 days by phase-contrast microscopy; type: functional, organism-based
3T3-L1 = test: Growth inhibition of mouse 3T3L1 cells at 10 uM after 3 days by Alamar blue assay; type: cell-based; details: 3t3-l1, 72 h
S2 [3] = test: Inhibition of heat shock-mediated activation of hs-Gal4/UAS-lacZ gene expression in Drosophila melanogaster S2 cells after 12 hrs by beta-galactosidase reporter assay; type: functional, cell-based
K562 = test: Growth inhibition of human K562 cells at 2 uM after 3 days by Alamar blue assay; type: functional, cell-based
[4] = Cytotoxicity against Drosophila melanogaster S2 cells assessed as inhibition of beta-galactosidase gene expression; type: cell-based
S2 [5] = test: Inhibition of innate immune response in Drosophila melanogaster S2 cells assessed as reduction in DAP-type peptidoglycans-mediated activation of Dpt-LacZ gene expression at 1 uM after 12 hrs by beta-galactosidase reporter assay; type: functional, cell-based
Dictyostelium discoideum [6] = test: Induction of stalk cell differentiation in Dictyostelium discoideum HM44 at 1 nM after 2 days by phase-contrast microscopy; type: functional
Dictyostelium discoideum [7] = test: Induction of stalk cell differentiation in Dictyostelium discoideum HM44 at […] after 2 days by phase-contrast microscopy; type: functional, organism-based

SMILES	Activity [1]	growth inhibition (GI) (HeLa)	Activity (Dictyostelium discoideum [2])	growth inhibition (GI) (3T3-L1)	inhibition (S2 [3])	growth inhibition (GI) (K562)	Activity [4]	inhibition (S2 [5])	Activity (Dictyostelium discoideum [6])	Activity (Dictyostelium discoideum [7])
CCCC(=O)c1c(OC)c(Cl)c2oc3c(Cl)c(OC)c(Cl)c(O)c3c2c1O	Non-toxic	Active	Dose-dependent effect	Toxic	Dose-dependent effect	Active	Non-toxic	Active		
CCCCCC(=O)c1c(O)c(Cl)c(OC)c(Cl)c1O									>80%	
CCCCCC(=O)c1c(OC)c(Cl)c2oc3c(Cl)c(OC)c(Cl)c(O)c3c2c1O	Non-toxic	Active		Toxic	Dose-dependent effect	Active	Non-toxic	Active		inactive
CCCC(=O)c1c(OC)c(Cl)c2oc3c(Cl)c(OC)c(Cl)c(O)c3c2c1OC		inactive		Non-toxic		inactive		inactive		inactive
